The source of these data is patent publication US8663928B2, “Method for the detection of post-translational modifications” (CIS BIO International, priority 2006, dated 2014).

In one assay the target is T1, Akt1 (Homo sapiens, UniProt P31749).
T1 construct: expressed in transfected cells; host or cells: HEK293
Put plainly: TR-FRET measurement of the phosphorylation of a generic protein substrate by Akt1 in co-transfected HEK293 cells, with total protein substrate. It counts as cell-based. On the procedure: 8000 HEK293 cells (ATCC) are either transfected with increasing quantities of plasmid coding for the substrate alone, or co-transfected with the same quantities of plasmid coding for the substrate and 25 ng of Akt1-pcDNA 3.1 (Invitrogen Corp. Cat No. V790-20) The co-transfection is carried out in the presence of Lipofectamine 2000 (Invitrogen corp. Cat No. 11668-019) and OPTI-MEM medium (Gibco Cat No. 31985).
The cells are then cultured for 48 hours at 37° C. in 25 μl of DMEM medium (Gibco Cat No. 11965-092), to which 10% FCS (Hyclone Cat No. SV30014-03) and 1% antibiotic and antifungal (Gibco Cat No. 15240-062) are added in 384-well plates (Proxiplate 384, Perkin-Elmer Cat No. 6006280).
The cells are lysed in 50 mM Hepes buffer, pH7, containing 0.1% BSA, 20 mM EDTA, 0.8 M potassium fluoride and 2% TRITON X-100® (octylphenol ethyelene oxide condensate)). This same buffer contains 1.8 ng of phosphospecific antibodies (STK antibody, Upstate Cat No. 35-002) conjugated with the donor (europium cryptate) and 40 ng of anti-FLAG conjugated with the acceptor (cross-linked allophycocyanin, XL 665, CIS bio international Cat No. 61 FG2XLA).
The plate is incubated for 1 hour at ambient temperature before time-resolved reading.
The FRET signals are measured on an Acquest 384 fluorimeter (Molecular Device) in TR-FRET mode at 620 nm (emission wavelength of rare earth cryptate) and 665 nm (emission wavelength of allophycocyanin) after excitation by a flash lamp with a bandwidth comprised between 330 and 380 nm. The ratio between the fluorescence emitted at 665 nm (fluorescence of the acceptor) and the fluorescence emitted at 620 nm (fluorescence of the donor) (Ratio 665/620) represents the FRET occurring between the donor (europium cryptate) and the acceptor (Allophycocyanin). […]
The cells are co-transfected and cultured as described in Example 1. […] The cells are then lysed and the phosphorylated protein substrate detected as described in Example 1.
In parallel, in a second well, cells are treated in identical manner. After lysis, the total quantity of protein substrate is measured using an anti-c-myc antibody coupled with europium cryptate (2.9 ng/well) (CIS bio international Cat No. 61MYCKLA) and an anti-FLAG antibody coupled with allophycocyanin (40 ng/well).
The cells are co-transfected with a plasmid coding for the protein substrate labelled by the c-myc and flag tags and with a plasmid coding for Akt1, as described in Example 1. […] In this case the lysate is first placed in the presence of a phosphospecific antibody, coupled with tris-bipyridine europium cryptate (CIS bio international, formula below), and an anti-FLAG antibody coupled with allophycocyanin (in the same quantities as those described in Example 1). […]

The next assay addresses T2, Cam kinase II (Homo sapiens, UniProt Q13557).
T2 construct: expressed in transfected cells; host or cells: HEK293
Put plainly: TR-FRET measurement of the phosphorylation of a generic protein substrate by Cam kinase II in co-transfected HEK293 cells. It counts as cell-based. The conditions noted are these: FIG. 2; ionomycin 1 μM, 5 min; HEK293 co-transfected with substrate plasmid and CamKII delta. On the procedure: 8000 cells HEK293 are either transfected with increasing quantities of plasmid coding for the substrate alone (Identical to Example 1), or co-transfected with the same quantities of plasmid coding for the substrate and 25 ng of CamKII 6-pcDNA 3.1 (plasmid coding for Cam kinase II). The transfection is carried out as described in Example 1.
The cells are then cultured for 48 hours at 37° C. in DMEM medium, comprising 10% fcetal calf serum and 1% antibiotic and antifungal, then for 16 hours in the same medium without serum.
The cells are stimulated for 5 min in the presence of ionomycin 1 μM (Sigma), and lysed as described above.
The phosphorylation of the protein substrate is detected as described in Example 1.

T1 sequence (P31749 whole entry, species assumed): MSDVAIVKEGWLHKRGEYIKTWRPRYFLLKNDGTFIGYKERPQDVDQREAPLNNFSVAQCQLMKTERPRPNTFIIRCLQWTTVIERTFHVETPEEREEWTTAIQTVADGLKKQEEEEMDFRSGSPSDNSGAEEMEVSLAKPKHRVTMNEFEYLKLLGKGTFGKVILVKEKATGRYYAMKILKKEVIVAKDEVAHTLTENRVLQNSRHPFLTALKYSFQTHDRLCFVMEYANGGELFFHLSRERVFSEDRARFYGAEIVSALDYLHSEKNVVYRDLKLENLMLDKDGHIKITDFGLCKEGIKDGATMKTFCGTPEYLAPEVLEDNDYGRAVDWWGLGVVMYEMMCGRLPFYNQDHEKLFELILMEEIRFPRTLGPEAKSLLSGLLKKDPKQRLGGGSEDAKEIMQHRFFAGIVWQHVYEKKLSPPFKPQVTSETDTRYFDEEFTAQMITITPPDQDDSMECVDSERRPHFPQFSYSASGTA
T2 sequence (Q13557 whole entry): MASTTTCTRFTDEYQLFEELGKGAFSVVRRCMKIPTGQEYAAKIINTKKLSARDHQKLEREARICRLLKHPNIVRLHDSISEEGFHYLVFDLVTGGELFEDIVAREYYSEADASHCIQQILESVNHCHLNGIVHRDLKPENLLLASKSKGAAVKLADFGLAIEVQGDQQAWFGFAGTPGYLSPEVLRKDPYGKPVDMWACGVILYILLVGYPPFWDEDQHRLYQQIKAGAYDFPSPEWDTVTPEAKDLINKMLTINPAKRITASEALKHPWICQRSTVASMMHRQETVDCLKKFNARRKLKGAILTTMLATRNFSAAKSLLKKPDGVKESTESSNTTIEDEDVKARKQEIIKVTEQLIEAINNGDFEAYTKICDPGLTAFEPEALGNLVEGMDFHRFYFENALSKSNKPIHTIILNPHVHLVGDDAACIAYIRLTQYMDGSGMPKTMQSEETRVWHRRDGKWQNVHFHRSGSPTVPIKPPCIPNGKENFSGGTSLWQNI

On to `CN[C@@H]1C[C@H]2O[C@@](C)([C@@H]1OC)n1c3ccccc3c3c4c(c5c6ccccc6n2c5c31)C(=O)NC4` [staurosporine], for which, at Akt1 (FIG. 3, HEK293 co-transfected with substrate plasmid and Akt1, 1 hour incubation with increasing concentrations, separate wells), the “signal corresponding to the phosphorylated protein substrate” value is on record as “reduces with increasing concentrations”. Besides, the “signal corresponding to the total protein substrate” value on Akt1 (FIG. 3, anti-c-myc cryptate/anti-FLAG allophycocyanin, second well, increasing concentrations) is reported as “remains constant whatever the dose of inhibitor”. For the same compound, the “signal corresponding to the phosphorylated protein substrate (not standardized)” value on Akt1 (FIG. 4, 0.2 nM, 20 nM, 2 μM, separate wells or single well with FRET suppressing agent) was “sensitive to staurosporine only in the case where it is added to the measurement medium at high concentrations (2 μM)”. In addition, the “ratio of phosphorylated protein substrate: total protein substrate” value at Akt1 (FIG. 6, signal standardized by total protein substrate signal, 0.2 nM, 20 nM, 2 μM) is reported as “inhibition of the phosphorylation of the protein substrate”.

For the compound `C[C@H](CCC(=O)O)C[C@H](C)C[C@H](C)C(=O)/C=C(\O)[C@H](C)C[C@H](C)C/C=C/[C@@H](C)[C@@H](O)[C@@H](C)[C@@H](O)C[C@@H]1CC[C@@](C)([C@H]2CC[C@@](C)([C@@H](C)O)O2)O1` [ionomycin], the “signal of phosphorylated protein substrate after stimulation” value at Cam kinase II is “much greater than in its absence”.
